Publication PMC7365463, “Oxfendazole mediates macrofilaricidal efficacy against the filarial nematode Litomosoides sigmodontis in vivo and inhibits Onchocerca spec. motility in vitro” (PLoS Neglected Tropical Diseases, 2020)
Like-named read-outs stand apart in the source and are kept apart here.

Columns and labels:
[1] = system: Onchocerca gutturosa adult male worms; assay: O. gutturosa adult worm MTT/formazan viability assay; conditions: 120 h
[2] = system: Onchocerca gutturosa adult male worms; assay: O. gutturosa adult male worm 5-day motility assay; conditions: for activity against adult O. gutturosa: metabolites of oxfendazole, less potent compared to oxfendazole
[3] = system: Onchocerca lienalis microfilariae; assay: O. lienalis microfilariae 5-day motility assay; conditions: 120 h
Brugia pahangi [4] = system: Brugia pahangi; design: method as in Reddy 1983 (Ref. 15); conditions: L3 (SC), Mastomys natalensis, patent phase, necropsy 43 days p.t., ref Reddy 1983 (Ref. 15), cited from earlier work
Litomosoides sigmodontis [5] = system: Litomosoides sigmodontis; design: method as in Reddy 1983 (Ref. 15); conditions: L3 (mite), Mastomys natalensis, patent phase, necropsy 43 days p.t., ref Reddy 1983 (Ref. 15), cited from earlier work
Brugia pahangi [6] = conditions: jirds, cited from earlier work
Brugia pahangi [7] = conditions: L3, cats, patent phase, necropsy 42 days p.t., ref Denham 1980 (Ref. 5), cited from earlier work
Brugia pahangi [8] = system: Brugia pahangi; design: method as in Devaney 1985 (Ref. 8); conditions: 50L3, balb/c, SC 10 or 50 mg/kg 5 cons. days, 4 days p.i., necropsy 3-4 weeks p.t.; ref Devaney 1985 (Ref. 8); cited from earlier work
Breinlia booliati = system: Breinlia booliati; design: method as in Mak 1981 (Ref. 7); conditions: 100L3 (SC), rats, SC 10mg/kg 5 cons. days, patent phase, necropsy 4 weeks p.t.; ref Mak 1981 (Ref. 7); cited from earlier work
Litomosoides sigmodontis [9] = system: Litomosoides sigmodontis; design: method as in Shibuya 1979 (Ref. 12); conditions: cotton rat, ref Shibuya 1979 (Ref. 12), cited from earlier work
[10] = system: L. sigmodontis microfilariae; assay: L. sigmodontis microfilariae-injected naïve mice; type: in vivo, Litomosoides sigmodontis; conditions: single intraperitoneal injection 5 mg/kg
Procedure: To investigate the in vivo efficacy of oxfendazole on microfilariae, microfilariae were isolated from peripheral blood of L. sigmodontis-infected cotton rats according to Chandrashekar et al. (1984) using a sucrose percoll gradient. 100,000 microfilariae were injected into the tail vein of naïve mice as previously described. Microfilariae-injected mice were treated with a commercial formulation of oxfendazole (Dolthene) twice daily with 2 x 12.5 mg/kg per os. As a positive control, additional mice were treated with a single intraperitoneal dose of ivermectin (5 mg/kg) in DMSO/PEG400/H20dest with a ratio of 1:7:2 according to Halliday et al.. Control animals received no treatment.

## Cl.Cl.NCCS[As](SCCN)c1ccc(Nc2nc(N)nc(N)n2)cc1 [Immiticide, melarsomine dihydrochloride]
[1]; 1.25 x 10^-5 M
  MTT Reduction (%): 91%
[1]; 1.9 x 10^-7 M
  MTT Reduction (%): 51%
[1]; 3.1 x 10^-6 M
  MTT Reduction (%): 94%
[1]; 7.8 x 10^-7 M
  MTT Reduction (%): 79%
[2]; 1.25 x 10^-5 M, 48 h
  Motility Reduction (%): 100%
[2]; 1.25 x 10^-5 M, 72 h
  Motility Reduction (%): 100%
[2]; 1.25 x 10^-5 M, 96 h
  Motility Reduction (%): 100%
[2]; 1.25 x 10^-5 M, 120 h
  Motility Reduction (%): 100%
[2]; 1.9 x 10^-7 M, 24 h
  Motility Reduction (%): 4%
[2]; 1.9 x 10^-7 M, 48 h
  Motility Reduction (%): 9%
[2]; 1.9 x 10^-7 M, 72 h
  Motility Reduction (%): 33%
[2]; 1.9 x 10^-7 M, 96 h
  Motility Reduction (%): 44%
[2]; 1.9 x 10^-7 M, 120 h
  Motility Reduction (%): 44%
[2]; 3.1 x 10^-6 M, 48 h
  Motility Reduction (%): 100%
[2]; 3.1 x 10^-6 M, 72 h
  Motility Reduction (%): 100%
[2]; 3.1 x 10^-6 M, 96 h
  Motility Reduction (%): 100%
[2]; 3.1 x 10^-6 M, 120 h
  Motility Reduction (%): 100%
[2]; 7.8 x 10^-7 M, 24 h
  Motility Reduction (%): 49%
[2]; 7.8 x 10^-7 M, 48 h
  Motility Reduction (%): 74%
[2]; 7.8 x 10^-7 M, 72 h
  Motility Reduction (%): 93%
[2]; 7.8 x 10^-7 M, 120 h
  Motility Reduction (%): 100%
[3]; concentrations equal or above 3.1·10^−6 M
  effect on microfilariae motility: completely inhibited microfilariae motility

## CCCSc1ccc2nc(NC(=O)OC)[nH]c2c1 [albendazole]
Brugia pahangi [4]; SC 100mg/kg 5 cons. days
  Reduction of worm burden: 100%
Brugia pahangi [4]; per os 150mg/kg 5 cons. days
  Reduction of worm burden: 50%
Litomosoides sigmodontis [5]; SC 100mg/kg 5 cons. days
  Reduction of worm burden: 100%
Litomosoides sigmodontis [5]; per os 150mg/kg 5 cons. days
  Reduction of worm burden: 0%
Brugia pahangi [6]; 15Ad (IP), SC 50mg/kg 5 cons. days, necropsy 4-5 weeks p.t., ref Denham 1980 (Ref. 5)
  Reduction of worm burden: 100%
Brugia pahangi [6]; 15Ad (IP), SC 25-12.5mg/kg 5 cons. days, necropsy 4-5 weeks p.t., ref Denham 1980 (Ref. 5)
  Reduction of worm burden: 80-90%
Brugia pahangi [6]; 15Ad (IP), SC 50-25mg/kg 5 cons. days, 4 days p.i., necropsy 5 weeks p.t., ref Surin 1990 (Ref. 11)
  Reduction of worm burden: 100%
Brugia pahangi [6]; 15Ad (IP), SC <6,25mg/kg 5 cons. days, necropsy 4-5 weeks p.t., ref Denham 1980 (Ref. 5)
  Reduction of worm burden: <30%
Brugia pahangi [6]; 50L3 (IP), SC 50-25mg/kg 5 cons. days, 70 days p.i., necropsy 5 weeks p.t., ref Surin 1990 (Ref. 11)
  Reduction of worm burden: 90%
[1]; 1.25 x 10^-5 M
  MTT Reduction (%): 28%
[1]; 3.1 x 10^-6 M
  MTT Reduction (%): 19%
[1]; 5.0 x 10^-5 M
  MTT Reduction (%): 47%
[1]; 7.8 x 10^-7 M
  MTT Reduction (%): 18%
Brugia pahangi [7]; SC 25mg/kg 5 cons. days
  Reduction of worm burden: 50%
Brugia pahangi [7]; SC 50mg/kg 5 cons. days
  Reduction of worm burden: 100%
Brugia pahangi [7]; SC 100mg/kg 5 cons. days
  Reduction of worm burden: 100%
[2]; 1.25 x 10^-5 M, 24 h
  Motility Reduction (%): 10%
[2]; 1.25 x 10^-5 M, 48 h
  Motility Reduction (%): 12%
[2]; 1.25 x 10^-5 M, 72 h
  Motility Reduction (%): 27%
[2]; 1.25 x 10^-5 M, 96 h
  Motility Reduction (%): 38%
[2]; 1.25 x 10^-5 M, 120 h
  Motility Reduction (%): 40%
[2]; 3.1 x 10^-6 M, 24 h
  Motility Reduction (%): 10%
[2]; 3.1 x 10^-6 M, 48 h
  Motility Reduction (%): 5%
[2]; 3.1 x 10^-6 M, 72 h
  Motility Reduction (%): 16%
[2]; 3.1 x 10^-6 M, 96 h
  Motility Reduction (%): 26%
[2]; 3.1 x 10^-6 M, 120 h
  Motility Reduction (%): 40%
[2]; 5.0 x 10^-5 M, 24 h
  Motility Reduction (%): 10%
[2]; 5.0 x 10^-5 M, 48 h
  Motility Reduction (%): 12%
[2]; 5.0 x 10^-5 M, 72 h
  Motility Reduction (%): 29%
[2]; 5.0 x 10^-5 M, 96 h
  Motility Reduction (%): 40%
[2]; 5.0 x 10^-5 M, 120 h
  Motility Reduction (%): 47%
[2]; 7.8 x 10^-7 M, 24 h
  Motility Reduction (%): 10%
[2]; 7.8 x 10^-7 M, 48 h
  Motility Reduction (%): 9%
[2]; 7.8 x 10^-7 M, 72 h
  Motility Reduction (%): 13%
[2]; 7.8 x 10^-7 M, 96 h
  Motility Reduction (%): 33%
[2]; 7.8 x 10^-7 M, 120 h
  Motility Reduction (%): 33%
[3]
  activity against microfilariae compared to oxfendazole: even less active
Brugia pahangi [8]
  Reduction of worm burden: 100%

## COC(=O)Nc1nc2ccc(S(=O)(=O)c3ccccc3)cc2[nH]1 [fenbendazole sulfone]
[2]
  activity against adult O. gutturosa: active

## COC(=O)Nc1nc2ccc(Sc3ccccc3)cc2[nH]1 [fenbendazole]
[2]
  activity against adult O. gutturosa: active

## COC(=O)Nc1nc2ccc(C(=O)c3ccccc3)cc2[nH]1 [meb, mebendazole]
Brugia pahangi [4]; SC 100mg/kg 5 cons. days
  Reduction of worm burden: 100%
Brugia pahangi [4]; per os 150mg/kg 5 cons. days
  Reduction of worm burden: 0%
Litomosoides sigmodontis [5]; SC 100mg/kg 5 cons. days
  Reduction of worm burden: 100%
Litomosoides sigmodontis [5]; per os 150mg/kg 5 cons. days
  Reduction of worm burden: 70%
Brugia pahangi [6]; 15Ad (IP), SC 25-12,5mg/kg 5 cons. days, 4 days p.i., necropsy 5 weeks p.t., ref Surin 1990 (Ref. 11)
  Reduction of worm burden: 100%
Brugia pahangi [6]; 50L3 (IP), SC 25mg/kg 5 cons. days, 70 days p.i., necropsy 5 weeks p.t., ref Surin 1990 (Ref. 11)
  Reduction of worm burden: 97%
Brugia pahangi [6]; 50L3 (IP), SC 12,5mg/kg 5 cons. days, 70 days p.i., necropsy 5 weeks p.t., ref Surin 1990 (Ref. 11)
  Reduction of worm burden: 78.5%
Brugia pahangi [6]; 100L3 (IP), SC 50mg/kg 5 cons.days, 3 months p.i., necropsy 15 days p.t., ref Denham 1978 (Ref. 3)
  Reduction of worm burden: 70%
Brugia pahangi [6]; 100L3 (IP), SC 50mg/kg 5 cons.days, 3 months p.i., necropsy 20 days p.t., ref Denham 1978 (Ref. 3)
  Reduction of worm burden: 100%
Brugia pahangi [6]; 100L3 (IP), SC 50mg/kg 5 cons.days, 3 months p.i., necropsy 30 days p.t., ref Denham 1978 (Ref. 3)
  Reduction of worm burden: 100%
Breinlia booliati
  Reduction of worm burden: 83%
Litomosoides sigmodontis [9]; IP 1mg/kg 3 cons.days, patent phase, necropsy 4 weeks p.t.
  Reduction of worm burden: 50%
Litomosoides sigmodontis [9]; IP 10mg/kg 3 cons.days, patent phase, necropsy 4 weeks p.t.
  Reduction of worm burden: 100%
Litomosoides sigmodontis [9]; IP 100mg/kg x1, patent phase, necropsy 4 weeks p.t.
  Reduction of worm burden: 100%
Litomosoides sigmodontis [9]; IT 0.1mg/kg 3 cons.days, patent phase, necropsy 5 weeks p.t.
  Reduction of worm burden: 0%
Litomosoides sigmodontis [9]; IT 1mg/kg 3 cons.days, patent phase, necropsy 5 weeks p.t.
  Reduction of worm burden: 100%
Litomosoides sigmodontis [9]; IT 10mg/kg 3 cons.days, patent phase, necropsy 3 weeks p.t.
  Reduction of worm burden: 20%
Litomosoides sigmodontis [9]; IT 10mg/kg 3 cons.days, patent phase, necropsy 5 weeks p.t.
  Reduction of worm burden: 100%
Litomosoides sigmodontis [9]; IT 10mg/kg 4 cons.days, patent phase, necropsy 4 weeks p.t.
  Reduction of worm burden: 0%
Litomosoides sigmodontis [9]; IT 25mg/kg x1, patent phase, necropsy 5 weeks p.t.
  Reduction of worm burden: 75%
Litomosoides sigmodontis [9]; IT 100mg/kg x1, patent phase, necropsy 5 weeks p.t.
  Reduction of worm burden: 85%

## ivermectin
[10]; by 6 h after treatment
  microfilaremia: statistically significant reduction of microfilaremia
[10]; from day four after treatment until end of experiment
  microfilaremia: microfilariae negative
